From patent publication US7786098B2, “Fluoroalkoxycombretastatin derivatives, method for producing the same and use thereof” (Zhejiang Dade Pharmaceutical Group Co. Ltd., priority 2006, dated 2010)
Where two headings read alike, the source gives them in different places.

Columns and labels:
tubulin = conditions: U.S. Pat. No. 5,561,122; WO 9935150; cited from earlier work
[1] = system: SGC7901 human stomach cancer cell; experiment: In vitro antitumor activity evaluation (SRB/MTT, 72 hours), SGC-7901; assay type: cell-based; conditions: Logit model
Experimental: (§1) The tumor cell cultured in vitro being administrated with fluoroalkoxycombretastatin for 72 hours, the MTT and SRB assays was used to evaluate its inhibition of tumor proliferation.
(§2) Cell groups: H460 human lung cancer cell, SGC7901: human stomach cancer cell, HT-29 human colon cancer cell, Bel-7402 human liver cancer cell.
(§3) Experiment design: cells were warm-cultured with the compounds in different concentrations (100, 10, 1, 0.1, 0.01, 0.001 μM) for 72 hours. SRB assay was used to evaluate the inhibition degree of the compounds to cell proliferation. The inhibition rate was calculated, and IC50 was calculated by using Logit model according to the inhibition rate. And the antitumor activity of compounds in vitro was compared.
(§4) The inhibition rate was expressed using the following equation: Inhibition rate (%)=[(average OD value of control group−average OD value of experimental group)/average OD value of control group]×100%.

[2] = system: H460 human lung cancer cell; experiment: In vitro antitumor activity evaluation (SRB/MTT, 72 hours), H460; assay type: cell-based; conditions: Logit model, read-out: IC50 Non-small cell lung cancer H460
Experimental: as §1, §2, §3, §4

[3] = system: HT-29 human colon cancer cell; experiment: In vitro antitumor activity evaluation (SRB/MTT, 72 hours), HT-29; assay type: cell-based; conditions: Logit model, read-out: IC50 Colon cancer HT29
Experimental: as §1, §2, §3, §4

[4] = system: Bel-7402 human liver cancer cell; experiment: In vitro antitumor activity evaluation (SRB/MTT, 72 hours), Bel-7402; assay type: cell-based; conditions: Logit model
Experimental: as §1, §2, §3, §4

[5] = system: human umbilical vein endothelial cells (HUVEC); experiment: In vitro neovascular inhibition evaluation; assay type: cell-based; conditions: same method as Example 15 (72 hours)
Experimental: as §1, §3, §4
Anti-angiogenesis effects of fluoroalkoxycombretastatins were assessed in human umbilical vein endothelial cells (HUVEC) using the same method in Example 15.

tumor = conditions: within 4 to 6 hours after the treatment of CA-4, cancer patients; cited from earlier work
[6] = Homo sapiens, SGC-7901, SRB assay
[7] = Homo sapiens, NCI-H460, SRB assay
[8] = Homo sapiens, Bel-7402, SRB assay

Row | Structure (SMILES) | inhibition of tubulin polymerization (tubulin) | IC50 ([1]; SRB assay) [nM] | IC50 ([2]; SRB assay) [nM] | IC50 ([3]; SRB assay) [nM] | IC50 ([4]; SRB assay) [nM] | IC50 [5] [nM] | blood flow (tumor) | tumor cells died (tumor) | IC50 [1, 6] [nM] | IC50 [2, 7] [nM] | IC50 ([3]; Homo sapiens, HT-29, SRB assay) [nM] | IC50 [4, 8] [nM] | IC50 ([5]; Homo sapiens, HUVEC) [nM]
1 | COc1ccc(/C=C\c2cc(OC)c(OC)c(OC)c2)c(O)c1O [CA-1, combretastatin A-1] | exceptionally strong inhibitors of tubulin polymerization |  |  |  |  |  |  |  |  |  |  |  | 
2 | COc1ccc(/C=C\c2cc(OC)c(OC)c(OC)c2)cc1O [CA-4, combretastatin A-4, reference compound] | exceptionally strong inhibitors of tubulin polymerization | 10 | 27 | 2380 | 750 | 3 | decreased obviously | more than 95% |  |  |  |  | 
3 | COc1cc(/C=C\c2ccc(OC(F)F)c(O)c2)cc(OC)c1OC [DD8011, (Z)-1-(3,4,5-trimethoxyphenyl)-2-(3′-hydroxy-4′-difluoromethoxyphenyl)-ethene] |  |  |  |  |  |  |  |  | 22 | 44 | 3000 | 920 | 2
4 | COc1cc(/C=C\c2ccc(OC(F)F)c(N)c2)cc(OC)c1OC [DD8021, (Z)-1-(3,4,5-trimethoxyphenyl)-2-(3′-amino-4′-difluoromethoxyphenyl)-ethene] |  |  |  |  |  |  |  |  | 18 | 36 | 2250 | 830 | 2
5 | COc1cc(/C=C\c2ccc(OCC(F)(F)F)c(O)c2)cc(OC)c1OC [DD8031, (Z)-1-(3,4,5-trimethoxyphenyl)-2-(3′-hydroxy-4′-trifluoroethoxyphenyl)-ethene] |  |  |  |  |  |  |  |  | 5 | 5 | 79 | 300 | 1
6 | COc1cc(/C=C\c2ccc(OCC(F)(F)F)c(N)c2)cc(OC)c1OC [DD8041, (Z)-1-(3,4,5-trimethoxyphenyl)-2-(3′-amino-4′-trifluoroethoxyphenyl)-ethene] |  |  |  |  |  |  |  |  | 3 | 5 | 68 | 280 | 1
